Data on 20 molecules can be found in patent US11066383B2, “Inhibitors of indoleamine 2,3-dioxygenase and methods of their use” (BRISTOL-MYERS SQUIBB COMPANY, priority 2016, dated 2021).

T1 sequence (P14902 whole entry): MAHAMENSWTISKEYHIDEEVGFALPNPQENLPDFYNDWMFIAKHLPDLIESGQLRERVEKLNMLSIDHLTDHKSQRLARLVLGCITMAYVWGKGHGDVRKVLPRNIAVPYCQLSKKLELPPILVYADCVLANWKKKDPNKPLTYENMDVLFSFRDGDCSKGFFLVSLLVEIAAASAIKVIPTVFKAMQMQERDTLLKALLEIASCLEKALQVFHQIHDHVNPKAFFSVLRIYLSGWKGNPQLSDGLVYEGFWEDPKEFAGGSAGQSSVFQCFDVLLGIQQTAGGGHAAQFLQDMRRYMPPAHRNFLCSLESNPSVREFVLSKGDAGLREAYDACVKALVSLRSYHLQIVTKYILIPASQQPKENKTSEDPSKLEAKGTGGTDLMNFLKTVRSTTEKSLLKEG

This assay concerns the target T1, human IDO1 (Homo sapiens, UniProt P14902).
T1 construct: expressed in transfected cells
Nature of the assay: HEK Human IDO-1 inhibition assay (kynurenine production in human IDO1/HEK293 cells). It is filed as cell-based. The conditions noted are these: read-out: Bio Activity (μM) IC50. As to the method: HEK293 cells were transfected with a pCDNA-based mammalian expression vector harboring human IDO1 cDNA (NM 002164.2) by electroporation. They were cultured in medium (DMEM with 10% FBS) containing 1 mg/ml G418 for two weeks. Clones of HEK293 cells that stably expressed human IDO1 protein were selected and expanded for IDO inhibition assay.
The human IDO1/HEK293 cells were seeded at 10,000 cells per 50 μL per well with RPMI/phenol red free media contains 10% FBS in a 384-well black wall clear bottom tissue culture plate (Matrix Technologies LLC) 100 nL of certain concentration of compound was then added to each well using ECHO liquid handling systems. The cells were incubated for 20 hours in 37° C. incubator with 5% CO2.
The compound treatments were stopped by adding trichloroacetic acid (Sigma-Aldrich) to a final concentration at 0.2%. The cell plate was further incubated at 50° C. for 30 minute. The equal volume supernatant (20 μL) and 0.2% (w/v) Ehrlich reagent (4-dimethylaminobenzaldehyde, Sigma-Aldrich) in glacial acetic acid were mixed in a new clear bottom 384-well plate. This plate was then incubated at room temperature for 30 minute. The absorbance at 490 nm was measured on Envision plate reader.
Compound IC50 values were calculated using the counts of 500 nM of a reference standard treatment as one hundred percent inhibition, and counts of no compound but DMSO treatment as zero percent inhibition.
As to `C[C@@H](C(=O)NC(C)(C)c1ccc(Cl)cc1)[C@H]1CC[C@@H](c2ccnc3ccc(F)cc32)CC1` [Example 15, (R)-N-(2-(4-chlorophenyl)propan-2-yl)-2-((cis)-4-(6-fluoroquinolin-4-yl)cyclohexyl)propanamide], the IC50 is < 1 µM.

Take `C[C@@H](C(=O)NCc1ccccc1Cl)[C@H]1CC[C@@H](c2ccnc3ccc(F)cc32)CC1` [Example 10, (R)—N-(2-chlorobenzyl)-2-((cis)-4-(6-fluoroquinolin-4-yl)cyclohexyl)propanamide]: the IC50 is < 1 µM.

For the molecule `CCCC(C(=O)NC12CC3CC(CC(C3)C1)C2)N1CCN(c2ccnc3ccc(F)cc23)CC1` (single isomer, unassigned) [Example 19-1], the IC50 is < 10 µM.

Consider `C[C@@H](C(=O)NCc1ccccc1)[C@H]1CC[C@@H](c2ccnc3ccc(F)cc32)CC1` [Example 18], for which the IC50 was < 10 µM.

In the case of `CC1(CC(=O)N[C@@]23C[C@@H]4C[C@@H](C[C@@](O)(C4)C2)C3)CCN(c2ccnc3ccc(F)cc23)CC1` [Example 23, 2-(1-(6-Fluoroquinolin-4-yl)-4-methylpiperidin-4-yl)-N-((1r,3s,5R,7S)-3-hydroxyadamantan-1-yl)acetamide], the IC50 is < 1 µM.

Turning to `CC1(CC(=O)NC(C)(C)c2ccc(Cl)cc2)CCN(c2ccnc(C(F)(F)F)c2)CC1` [Example 8, N-(2-(4-chlorophenyl)propan-2-yl)-2-(4-methyl-1-(2-(trifluoromethyl)-pyridin-4-yl)piperidin-4-yl)acetamide], the IC50 is < 10 µM.

Turning to `CC[C@H](NC(=O)CC1(C)CCN(c2ccnc(C(F)(F)F)c2)CC1)c1ccccc1` [Example 6, (S)-2-(4-Methyl-1-(2-(trifluoromethyl)pyridin-4-yl)piperidin-4-yl)-N-(1-phenylpropyl)acetamide], the IC50 is < 1 µM.

In the case of `Cc1cc(Cl)ccc1CNC(=O)CC1(C)CCN(c2ccnc3ccc(F)cc23)CC1` [Example 1, N-(4-Chloro-2-methylbenzyl)-2-(1-(6-fluoroquinolin-4-yl)-4-methylpiperidin-4-yl)acetamide], the IC50 is < 0.1 µM.

Consider `CC1(CC(=O)NC23CC4CC(CC(C4)C2)C3)CCN(c2ccnc3ccc(F)cc23)CC1` [Example 22, N-((3s,5s,7s)-Adamantan-1-yl)-2-(1-(6-fluoroquinolin-4-yl)-4-methylpiperidin-4-yl)acetamide], for which the IC50 is < 0.1 µM.

Consider `CC1(CC(=O)NCc2ccc(Cl)cc2)CCN(c2ccnc3ccc(F)cc23)CC1` [Example 5, N-(4-chlorobenzyl)-2-(1-(6-fluoroquinolin-4-yl)-4-methylpiperidin-4-yl)acetamide], for which the IC50 is < 1 µM.

Take `CC1(CC(=O)NC2(c3ccc(Cl)cc3Cl)CC2)CCN(c2ccnc(C(F)(F)F)c2)CC1` [Example 7, N-(1-(2,4-dichlorophenyl)cyclo-propyl)-2-(4-methyl-1-(2-(trifluoro-methyl)pyridin-4-yl)piperidin-4-yl)acetamide]: the IC50 was < 1 µM.

On to `C[C@H](NC(=O)[C@H](C)[C@H]1CC[C@@H](c2ccnc3ccc(F)cc32)CC1)c1ccc(Cl)cc1` [Example 14, (R)-N-((S)-1-(4-chlorophenyl)ethyl)-2-((cis)-4-(6-fluoroquinolin-4-yl)cyclohexyl)propanamide], for which the IC50 is < 0.1 µM.

Consider `C[C@H](NC(=O)[C@H](C)[C@H]1CC[C@@H](c2ccnc3ccc(F)cc32)CC1)c1ccccc1` [Example 13, (R)-2-((cis)-4-(6-fluoroquinolin-4-yl)cyclohexyl)-N-((S)-1-phenylethyl)propanamide], for which the concentration for half-maximal inhibition (IC50) was < 1 µM.

With `C[C@@H](C(=O)NCc1ccc(-c2ccccc2)cc1)[C@H]1CC[C@@H](c2ccnc3ccc(F)cc32)CC1` [Example 12, (R)-N-([1,1′-biphenyl]-4-ylmethyl)-2-((cis)-4-(6-fluoroquinolin-4-yl)cyclohexyl)propanamide], the IC50 is < 1 µM.

For `CC1(CC(=O)NC2(c3ccc(Cl)cc3Cl)CC2)CCN(c2ccnc3ccc(F)cc23)CC1` [Example 2, N-(1-(2,4-dichlorophenyl)cyclo-propyl)-2-(1-(6-fluoroquinolin-4-yl)-4-methylpiperidin-4-yl)acetamide], the IC50 is < 0.1 µM.

In the case of `C[C@@H](C(=O)NC1(c2ccc(Cl)cc2Cl)CC1)[C@H]1CC[C@@H](c2ccnc3ccc(F)cc32)CC1` [Example 16, (R)-N-(1-(2,4-dichlorophenyl)cyclopropyl)-2-((cis)-4-(6-fluoroquinolin-4-yl)cyclohexyl)propanamide], the IC50 is < 1 µM.

Turning to `C[C@@H](NC(=O)[C@H](C)[C@H]1CC[C@@H](c2ccnc3ccc(F)cc32)CC1)c1ccc(Cl)cc1` [Example 17, (R)-N-((R)-1-(4-chlorophenyl)ethyl)-2-((1s,4S)-4-(6-fluoroquinolin-4-yl)cyclohexyl)propanamide], the IC50 was < 10 µM.

Take `C[C@H](NC(=O)CC1(C)CCN(c2ccnc3ccc(F)cc23)CC1)c1ccc(Cl)cc1` [Example 4, (S)-N-(1-(4-chlorophenyl)ethyl)-2-(1-(6-fluoroquinolin-4-yl)-4-methylpiperidin-4-yl)acetamide]: the half-maximal inhibitory concentration (IC50) was < 0.1 µM.

With `CC1(CC(=O)NC(C)(C)c2ccc(Cl)cc2)CCN(c2ccnc3ccc(F)cc23)CC1` [Example 3, N-(2-(4-chlorophenyl)propan-2-yl)-2-(1-(6-fluoroquinolin-4-yl)-4-methylpiperidin-4-yl)acetamide], the IC50 is < 0.1 µM.

On to `C[C@H](NC(=O)CC1(C)CCN(c2ccnc(C(F)(F)F)c2)CC1)c1ccc(Cl)cc1` [Example 9, (S)-N-(1-(4-chlorophenyl)ethyl)-2-(4-methyl-1-(2-(trifluoromethyl)-pyridin-4-yl)piperidin-4-yl)acetamide], for which the IC50 was < 1 µM.
